What was measured:
[1] = biological target: T1, EGFR L858R (Homo sapiens, UniProt P00533, L858R); assay: Biochemical EGFR inhibition assay (Caliper mobility shift), EGFR L858R; settings: biochemical Caliper mobility shift assay, EGFR L858R enzyme; read-out: Enz EGFR L858R IC50
T1 construct: purchased SignalChem E10-122BG
How it was run: (§1)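 Recombinant EGFR mutant phosphorylates 2.5 μM 5-FAM peptide at 1.0 mM ATP or ATP Km, in 100 mM HEPES pH 7.5, 10 mM MgCl2, 1 mM DTT, 1% DMSO, 25 °C to 10–20% conversion, EDTA stop. Caliper mobility shift separation; apparent IC50 from percent activity versus log concentration.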

[2] = biological target: T2, EGFR (d746-750) (Homo sapiens, UniProt P00533, DEL746-750); assay: Biochemical EGFR inhibition assay (Caliper mobility shift), EGFR (d746-750); settings: biochemical Caliper mobility shift assay, EGFR Exon 19-del enzyme; read-out: Enz EGFR Exon 19-del IC50
T2 construct: purchased SignalChem E10-122JG
How it was run: as §1

[3] = biological target: intracellular phosphorylation of EGFR (Tyr1068) in PC-9 cells (Homo sapiens, UniProt P00533, DEL746-750); assay: PC-9 pEGFR AlphaLISA assay; format: cell-based; settings: 4 hours incubation, read-out: Phos EGFR PC9 IC50
How it was run: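 PC-9 cells (EGFR del746-750) in phenol-free DMEM/10% FBS, adhered overnight, then exposed to 10-point 4-fold compound dilutions for 4 h at 37 °C. Lysates assayed for pEGFR Tyr1068 by AlphaLISA SureFire Ultra; IC50 from percent pEGFR inhibition vs log concentration.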

T2 sequence (P00533 with tags, fused parts or gaps DEL746-750 limits assumed): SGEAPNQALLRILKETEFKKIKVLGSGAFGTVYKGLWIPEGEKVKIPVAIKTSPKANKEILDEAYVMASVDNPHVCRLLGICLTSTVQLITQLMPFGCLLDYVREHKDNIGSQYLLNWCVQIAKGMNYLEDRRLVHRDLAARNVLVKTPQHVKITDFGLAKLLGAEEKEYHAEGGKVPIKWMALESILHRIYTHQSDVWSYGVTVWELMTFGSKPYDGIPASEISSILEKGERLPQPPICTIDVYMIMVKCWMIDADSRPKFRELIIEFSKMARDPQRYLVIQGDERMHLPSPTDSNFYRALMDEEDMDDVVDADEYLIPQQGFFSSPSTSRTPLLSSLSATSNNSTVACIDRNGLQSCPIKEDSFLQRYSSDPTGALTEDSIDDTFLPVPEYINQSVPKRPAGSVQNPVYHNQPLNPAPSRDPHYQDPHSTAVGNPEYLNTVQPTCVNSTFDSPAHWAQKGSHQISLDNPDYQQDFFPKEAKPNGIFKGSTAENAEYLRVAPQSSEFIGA
T1 sequence (P00533 25-1210 L858R): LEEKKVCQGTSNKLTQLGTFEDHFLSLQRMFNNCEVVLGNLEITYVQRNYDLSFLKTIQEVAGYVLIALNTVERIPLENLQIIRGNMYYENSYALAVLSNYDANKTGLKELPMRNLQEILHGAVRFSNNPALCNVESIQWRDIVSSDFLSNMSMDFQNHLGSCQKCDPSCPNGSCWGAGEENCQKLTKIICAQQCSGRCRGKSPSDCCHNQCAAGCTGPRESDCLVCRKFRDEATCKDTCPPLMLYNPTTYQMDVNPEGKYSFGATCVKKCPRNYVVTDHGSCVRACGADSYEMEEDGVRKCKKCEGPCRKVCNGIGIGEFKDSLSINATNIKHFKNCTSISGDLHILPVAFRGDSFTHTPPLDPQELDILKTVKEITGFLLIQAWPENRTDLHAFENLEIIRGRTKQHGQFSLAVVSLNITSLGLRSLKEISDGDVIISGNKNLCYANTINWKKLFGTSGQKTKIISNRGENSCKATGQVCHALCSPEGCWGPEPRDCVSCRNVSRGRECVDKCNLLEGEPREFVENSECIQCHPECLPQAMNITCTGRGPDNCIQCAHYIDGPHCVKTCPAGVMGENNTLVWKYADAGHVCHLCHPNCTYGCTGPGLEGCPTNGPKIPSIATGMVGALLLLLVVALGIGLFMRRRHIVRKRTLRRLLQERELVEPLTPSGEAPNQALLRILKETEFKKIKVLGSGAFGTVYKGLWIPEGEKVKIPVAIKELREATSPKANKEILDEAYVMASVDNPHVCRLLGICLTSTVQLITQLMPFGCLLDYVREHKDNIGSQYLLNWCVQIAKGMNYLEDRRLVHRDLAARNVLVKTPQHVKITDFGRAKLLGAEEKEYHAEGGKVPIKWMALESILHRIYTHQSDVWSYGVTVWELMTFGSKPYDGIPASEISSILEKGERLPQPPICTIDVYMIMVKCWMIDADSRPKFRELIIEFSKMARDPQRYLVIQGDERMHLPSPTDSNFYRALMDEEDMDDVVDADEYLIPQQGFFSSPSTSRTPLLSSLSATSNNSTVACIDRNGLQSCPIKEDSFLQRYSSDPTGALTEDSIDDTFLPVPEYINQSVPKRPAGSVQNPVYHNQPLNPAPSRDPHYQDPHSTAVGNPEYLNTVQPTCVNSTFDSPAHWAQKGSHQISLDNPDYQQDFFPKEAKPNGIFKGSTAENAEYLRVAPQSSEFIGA
Chain of intracellular phosphorylation of EGFR (Tyr1068) in PC-9 cells (P00533 with tags, fused parts or gaps DEL746-750): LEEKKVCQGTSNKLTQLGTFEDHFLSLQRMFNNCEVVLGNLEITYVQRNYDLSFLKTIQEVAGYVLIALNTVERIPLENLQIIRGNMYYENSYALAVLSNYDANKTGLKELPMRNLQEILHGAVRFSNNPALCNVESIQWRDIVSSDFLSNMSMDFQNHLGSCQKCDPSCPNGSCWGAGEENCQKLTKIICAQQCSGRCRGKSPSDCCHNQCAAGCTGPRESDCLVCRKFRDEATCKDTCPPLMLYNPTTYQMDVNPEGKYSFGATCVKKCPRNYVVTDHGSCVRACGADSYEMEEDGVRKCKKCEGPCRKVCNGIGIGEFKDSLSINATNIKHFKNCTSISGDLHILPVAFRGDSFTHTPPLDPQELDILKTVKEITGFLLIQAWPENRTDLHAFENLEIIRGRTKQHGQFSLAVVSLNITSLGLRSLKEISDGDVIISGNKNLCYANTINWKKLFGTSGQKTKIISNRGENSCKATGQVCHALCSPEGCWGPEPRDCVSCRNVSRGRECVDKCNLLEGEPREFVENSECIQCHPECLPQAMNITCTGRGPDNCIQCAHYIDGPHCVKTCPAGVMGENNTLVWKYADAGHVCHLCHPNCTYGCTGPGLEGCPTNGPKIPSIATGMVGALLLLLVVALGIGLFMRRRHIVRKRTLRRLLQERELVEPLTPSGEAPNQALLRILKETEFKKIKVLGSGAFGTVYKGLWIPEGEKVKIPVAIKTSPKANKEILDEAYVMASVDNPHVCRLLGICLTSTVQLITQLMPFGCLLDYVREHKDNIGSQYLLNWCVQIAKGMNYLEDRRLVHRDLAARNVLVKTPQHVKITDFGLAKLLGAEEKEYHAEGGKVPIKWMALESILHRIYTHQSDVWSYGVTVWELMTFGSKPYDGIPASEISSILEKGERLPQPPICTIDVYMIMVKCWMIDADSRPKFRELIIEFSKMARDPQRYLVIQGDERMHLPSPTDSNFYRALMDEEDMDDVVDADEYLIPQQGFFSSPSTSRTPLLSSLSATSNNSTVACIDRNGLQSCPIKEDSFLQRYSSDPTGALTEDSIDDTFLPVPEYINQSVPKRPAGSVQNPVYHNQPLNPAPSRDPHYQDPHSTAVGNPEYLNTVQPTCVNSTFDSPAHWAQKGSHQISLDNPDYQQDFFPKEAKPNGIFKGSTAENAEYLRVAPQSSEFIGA

An IC50 [1] of no more than 0.01 µM, an IC50 [2] of no more than 0.01 µM and an IC50 [3] of 0.0101 to 0.05 µM were found for `C[C@@H](Oc1cc(-c2cnn(C)c2)cc2ncnc(Nc3ccc4ncsc4c3F)c12)C1CCOCC1` (single isomer, unassigned) [Example 110] in this work.
An IC50 [1] of no more than 0.01 µM, an IC50 [2] of no more than 0.01 µM and an IC50 [3] of no more than 0.01 µM were found for `CN1CCC2(COC2)C(Oc2cc(-c3cnn(C)c3)cc3ncnc(Nc4ccc5ncsc5c4)c23)C1` (stereo not drawn) [Example 352, N-(7-(1-methyl-1H-pyrazol-4-yl)-5-((7-methyl-2-oxa-7-azaspiro[3.5]nonan-5-yl)oxy)quinazolin-4-yl)benzo[d]thiazol-6-amine] in this work.
An IC50 [1] of no more than 0.01 µM, an IC50 [2] of no more than 0.01 µM and an IC50 [3] of no more than 0.01 µM were found for `Cn1cc(-c2cc(O[C@H]3CC[C@H](O)CC3)c3c(Nc4ccc5ncsc5c4)ncnc3c2)cn1` [Example 5, (1r,4r)-4-((4-(benzo[d]thiazol-6-ylamino)-7-(1-methyl-1H-pyrazol-4-yl)quinazolin-5-yl)oxy)cyclohexan-1-ol] in this work.
An IC50 [1] of no more than 0.01 µM, an IC50 [2] of no more than 0.01 µM and an IC50 [3] of no more than 0.01 µM were found for `C[C@@H]1CN(C)CCN1C(=O)Nc1cc2c(Nc3ccc4ncsc4c3)ncnc2cc1-c1ccn(C)n1` [Example 255, (R)-N-(4-(benzo[d]thiazol-6-ylamino)-7-(1-methyl-1H-pyrazol-3-yl)quinazolin-6-yl)-2,4-dimethylpiperazine-1-carboxamide] in this work.
An IC50 [1] of no more than 0.01 µM, an IC50 [2] of no more than 0.01 µM and an IC50 [3] of 0.0101 to 0.05 µM were found for `CN1CC[C@H](Oc2cc(-c3cnn(C)c3)cc3ncnc(Nc4ccc5ncsc5c4F)c23)C1=O` (single isomer, unassigned) [Example 73] in this work.
An IC50 [1] of no more than 0.01 µM, an IC50 [2] of no more than 0.01 µM and an IC50 [3] of 0.0101 to 0.05 µM were found for `c1nc(Nc2ccc3ncsc3c2)c2c(OC3CCOCC3)cc(N3CC4CC(C3)O4)cc2n1` [Example 199, N-(7-(6-oxa-3-azabicyclo[3.1.1]heptan-3-yl)-5-((tetrahydro-2H-pyran-4-yl)oxy)quinazolin-4-yl)benzo[d]thiazol-6-amine] in this work.
An IC50 [1] of no more than 0.01 µM, an IC50 [2] of no more than 0.01 µM and an IC50 [3] of no more than 0.01 µM were found for `COc1cc2ncnc(Nc3ccc4ncsc4c3)c2cc1-c1cnn(C2CCN(C)C[C@H]2F)c1` (single isomer, unassigned) [Example 166] in this work.
An IC50 [1] of no more than 0.01 µM, an IC50 [2] of no more than 0.01 µM and an IC50 [3] of no more than 0.01 µM were found for `COc1nn(C)cc1-c1cc(O[C@@H]2CCNC[C@@H]2F)c2c(Nc3ccc4ncsc4c3)ncnc2c1` [Example 363, N-(5-(((3S,4R)-3-fluoropiperidin-4-yl)oxy)-7-(3-methoxy-1-methyl-1H-pyrazol-4-yl)quinazolin-4-yl)benzo[d]thiazol-6-amine] in this work.
An IC50 [1] of 0.0101 to 0.05 µM, an IC50 [2] of no more than 0.01 µM and an IC50 [3] of 0.0101 to 0.05 µM were found for `C[C@@H](Oc1cc(-c2cnn(C)c2)cc2ncnc(Nc3ccc4ncsc4c3)c12)[C@H](C)N(C)C` (single isomer, unassigned) [Example 144] in this work.
An IC50 [1] of no more than 0.01 µM, an IC50 [2] of no more than 0.01 µM and an IC50 [3] of 0.0101 to 0.05 µM were found for `COc1nn(C)cc1-c1cc(O[C@H]2CN(C)C[C@H]2F)c2c(Nc3ccc4ncsc4c3)ncnc2c1` (single isomer, unassigned) [Example 374] in this work.
An IC50 [1] of 0.0101 to 0.05 µM, an IC50 [2] of no more than 0.01 µM and an IC50 [3] of 0.0101 to 0.05 µM were found for `Cn1cc(-c2cc(OC3CCN(C4CCOCC4)CC3)c3c(Nc4ccc5ncsc5c4)ncnc3c2)cn1` [Example 412, N-(7-(1-methyl-1H-pyrazol-4-yl)-5-((1-(tetrahydro-2H-pyran-4-yl)piperidin-4-yl)oxy)quinazolin-4-yl)benzo[d]thiazol-6-amine] in this work.
An IC50 [1] of no more than 0.01 µM, an IC50 [2] of no more than 0.01 µM and an IC50 [3] of no more than 0.01 µM were found for `C[C@@H](Oc1cc(-c2cnn(C)c2)cc2ncnc(Nc3ccc4ncsc4c3)c12)C(CO)CO` [Example A56, (R)-2-(1-((4-(benzo[d]thiazol-6-ylamino)-7-(1-methyl-1H-pyrazol-4-yl)quinazolin-5-yl)oxy)ethyl)propane-1,3-diol] in this work.
An IC50 [1] of 0.0101 to 0.05 µM, an IC50 [2] of no more than 0.01 µM and an IC50 [3] of no more than 0.01 µM were found for `CC(CN(C)C)Oc1cc(N2CC(C)OC(C)C2)cc2ncnc(Nc3ccc4ncsc4c3)c12` (single isomer, unassigned) [Example 150] in this work.
An IC50 [1] of no more than 0.01 µM, an IC50 [2] of no more than 0.01 µM and an IC50 [3] of no more than 0.01 µM were found for `COc1nn(C)cc1-c1cc(O[C@H]2CN(C)C[C@@H]2F)c2c(Nc3ccc4ncsc4c3)ncnc2c1` (single isomer, unassigned) [Example 378] in this work.
An IC50 [1] of no more than 0.01 µM, an IC50 [2] of no more than 0.01 µM and an IC50 [3] of no more than 0.01 µM were found for `CN(C)C[C@H](Oc1cc(-c2cnn(C)c2)cc2ncnc(Nc3ccc4ncsc4c3)c12)C(F)(F)F` (single isomer, unassigned) [Example 178] in this work.
An IC50 [1] of no more than 0.01 µM, an IC50 [2] of no more than 0.01 µM and an IC50 [3] of no more than 0.01 µM were found for `CN1CC[C@@H](Oc2cc(-c3cnn(C)c3)cc3ncnc(Nc4ccc5ncsc5c4)c23)[C@@H](F)C1` (single isomer, unassigned) [Example 340] in this work.
An IC50 [1] of no more than 0.01 µM, an IC50 [2] of no more than 0.01 µM and an IC50 [3] of no more than 0.01 µM were found for `CN1C[C@H](F)C[C@H](Oc2cc(-c3cnn(C)c3)cc3ncnc(Nc4ccc5ncsc5c4)c23)C1` (single isomer, unassigned) [Example 336] in this work.
An IC50 [1] of no more than 0.01 µM, an IC50 [2] of no more than 0.01 µM and an IC50 [3] of no more than 0.01 µM were found for `CN(C)C[C@@H](Oc1cc(-c2cnn(C)c2)cc2ncnc(Nc3ccc4ncsc4c3)c12)C(F)F` (single isomer, unassigned) [Example 151] in this work.
An IC50 [1] of no more than 0.01 µM, an IC50 [2] of no more than 0.01 µM and an IC50 [3] of 0.0101 to 0.05 µM were found for `CC(C)N1CC[C@@H](Oc2cc(-c3cnn(C)c3)cc3ncnc(Nc4ccc5ncsc5c4)c23)C1=O` (single isomer, unassigned) [Example 64] in this work.
An IC50 [1] of no more than 0.01 µM, an IC50 [2] of no more than 0.01 µM and an IC50 [3] of no more than 0.01 µM were found for `Cn1cc(-c2cc(OC3CC4(COC4)C3)c3c(Nc4ccc5ncsc5c4)ncnc3c2)cn1` [Example 38, N-(5-((2-oxaspiro[3.3]heptan-6-yl)oxy)-7-(1-methyl-1H-pyrazol-4-yl)quinazolin-4-yl)benzo[d]thiazol-6-amine] in this work.
An IC50 [1] of no more than 0.01 µM, an IC50 [2] of no more than 0.01 µM and an IC50 [3] of 0.0101 to 0.05 µM were found for `Cn1cc(-c2cc(OCC(=O)N3CCC3)c3c(Nc4ccc5ncsc5c4)ncnc3c2)cn1` [Example 271, 1-(azetidin-1-yl)-2-((4-(benzo[d]thiazol-6-ylamino)-7-(1-methyl-1H-pyrazol-4-yl)quinazolin-5-yl)oxy)ethan-1-one] in this work.
An IC50 [1] of no more than 0.01 µM, an IC50 [2] of no more than 0.01 µM and an IC50 [3] of no more than 0.01 µM were found for `C[C@H](Oc1cc(N2CCN(C)C2=O)cc2ncnc(Nc3ccc4ncsc4c3)c12)C1COC1` (single isomer, unassigned) [Example 157] in this work.
An IC50 [1] of no more than 0.01 µM, an IC50 [2] of no more than 0.01 µM and an IC50 [3] of 0.0101 to 0.05 µM were found for `C[C@@H](Oc1cc(N2CCN(C)CC2)cc2ncnc(Nc3ccc4ncsc4c3F)c12)C1COC1` (single isomer, unassigned) [Example 94] in this work.
An IC50 [1] of no more than 0.01 µM, an IC50 [2] of no more than 0.01 µM and an IC50 [3] of no more than 0.01 µM were found for `CCN1CCC(Oc2cc(-c3cnn(C)c3)cc3ncnc(Nc4ccc5ncsc5c4)c23)CC1` [Example 309, N-(5-((1-ethylpiperidin-4-yl)oxy)-7-(1-methyl-1H-pyrazol-4-yl)quinazolin-4-yl)benzo[d]thiazol-6-amine] in this work.
An IC50 [1] of no more than 0.01 µM, an IC50 [2] of no more than 0.01 µM and an IC50 [3] of no more than 0.01 µM were found for `CN(C)C1CCC(Oc2cc(-c3cnn(C)c3)cc3ncnc(Nc4ccc5ncsc5c4)c23)CC1` (stereo not drawn) [Example 21, N-(5-((4-(dimethylamino)cyclohexyl)oxy)-7-(1-methyl-1H-pyrazol-4-yl)quinazolin-4-yl)benzo[d]thiazol-6-amine] in this work.
An IC50 [1] of no more than 0.01 µM, an IC50 [2] of no more than 0.01 µM and an IC50 [3] of no more than 0.01 µM were found for `C[C@@H](Oc1cc(-c2cnn(C)c2)cc2ncnc(Nc3ccc4ncsc4c3)c12)[C@H](C)N(C)C` (single isomer, unassigned) [Example 145] in this work.
An IC50 [1] of no more than 0.01 µM, an IC50 [2] of no more than 0.01 µM and an IC50 [3] of no more than 0.01 µM were found for `Cn1cc(-c2cc(OCC(=O)N3CC4(COC4)C3)c3c(Nc4ccc5ncsc5c4F)ncnc3c2)cn1` [Example 277, 2-((4-((7-fluorobenzo[d]thiazol-6-yl)amino)-7-(1-methyl-1H-pyrazol-4-yl)quinazolin-5-yl)oxy)-1-(2-oxa-6-azaspiro[3.3]heptan-6-yl)ethan-1-one] in this work.
An IC50 [1] of no more than 0.01 µM, an IC50 [2] of no more than 0.01 µM and an IC50 [3] of 0.0101 to 0.05 µM were found for `Cn1ccc(-c2cc3ncnc(Nc4ccc5ncsc5c4)c3cc2NC2CCNCC2)n1` [Example 266, N4-(benzo[d]thiazol-6-yl)-7-(1-methyl-1H-pyrazol-3-yl)-N6-(piperidin-4-yl)quinazoline-4,6-diamine] in this work.
An IC50 [1] of no more than 0.01 µM, an IC50 [2] of no more than 0.01 µM and an IC50 [3] of no more than 0.01 µM were found for `COc1nn(C)cc1-c1cc(O[C@H]2CCN(C)C[C@H]2F)c2c(Nc3ccc4ncsc4c3)ncnc2c1` [Example 364, N-(5-(((3R,4S)-3-fluoro-1-methylpiperidin-4-yl)oxy)-7-(3-methoxy-1-methyl-1H-pyrazol-4-yl)quinazolin-4-yl)benzo[d]thiazol-6-amine] in this work.
An IC50 [1] of no more than 0.01 µM, an IC50 [2] of no more than 0.01 µM and an IC50 [3] of 0.0101 to 0.05 µM were found for `COc1cn(C)nc1-c1cc(O[C@H](C)C2COC2)c2c(Nc3ccc4ncsc4c3)ncnc2c1` (single isomer, unassigned) [Example 121] in this work.
An IC50 [1] of no more than 0.01 µM, an IC50 [2] of no more than 0.01 µM and an IC50 [3] of no more than 0.01 µM were found for `CN1CCC2(COC2)[C@H](Oc2cc(-c3cnn(C)c3)cc3ncnc(Nc4ccc5ncsc5c4)c23)C1` (single isomer, unassigned) [Example 353] in this work.
An IC50 [1] of no more than 0.01 µM, an IC50 [2] of no more than 0.01 µM and an IC50 [3] of no more than 0.01 µM were found for `Cn1cc(-c2cc(O[C@@H]3CC[C@@H]3O)c3c(Nc4ccc5ncsc5c4)ncnc3c2)cn1` (single isomer, unassigned) [Example A51] in this work.
